Where two headings read alike, the source gives them in different places.
Experiments:
[1] = human, in vivo
Description: The study was designed as an open-label, single dose, 4-way crossover study in 24 healthy male subjects. Randomization was performed according to the Latin Square Block design. Six subjects each were distributed to the four treatment arms. Each subject completed the study having received a single dose of 150 mg, 300 mg, and 450 mg of tolperisone once daily in a fasted state, and 150 mg of tolperisone with food. The wash-out period between study periods was at least seven days.
24 healthy male subjects were planned to participate in the study. […] The study group was composed of healthy male Caucasians, aged between 18-50 years, with a body mass index of 19-28 kg/m^2.
Tolperisone, 2-methyl-1-(4-methylphenyl)-3-(1-piperidinyl)-1-propanone, was supplied in coated tablets of 150 mg (“SPH-3047”, Sanochemia Pharmazeutica AG).
The dosage regimen was a four-way crossover. Within four treatment sequences, each subject received each of the following doses once.
Procedures from Day 1 until Day 3 were as follows (time points are detailed in the tabular schedule of trial procedures): • (i) An indwelling intravenous catheter was placed for blood sampling (without using heparin). • (ii) The study drug was administered (either 150, 300, or 450 mg of tolperisone) with 200 ml non-carbonated water in a standing position in a fasting state (intake of a standard breakfast not earlier than 90 minutes after dosing). For the food effect investigation, subjects received 150 mg tolperisone after food intake. • (iii) 12-lead ECG was taken both pre-dose, and at about 2 h post-dose (+15 min); ECG recordings were performed approximately 15 minutes before blood sampling. […] 64 blood samples for the determination of tolperisone and its main metabolite were drawn at the following times: pre-dose and 0.25, 0.5, 0.75, 1.0, 1.25, 1.5, 2, 3, 4, 8, 12, 24, 36, 48, and 72 hours post-administration (16 samples at each treatment).
On Day 1, meals were identical for all four study periods, with the exception of the “fed” study period during which a standardized breakfast was served 30 min prior to dosing.
In the non-fasted study period subjects received a standardized breakfast 30 min prior to dosing. The breakfast was a high fat breakfast according to FDA recommendations and was composed of the following food items: 2 slices of toasted white bread with butter, 2 eggs fried in butter, 2 slices of bacon, 2 ounces (1 oz=28.35 g) of “hash-browns” (fried, shredded potatoes), and 8 ounces of whole milk.
Assessment of Pharmacokinetics: For pharmacokinetic analysis, 7 ml of blood were collected by using Sarstedt monovettes (Sarstedt Ltd., Leicester, UK) or Vacutainers (Becton Dickenson).
The samples were immediately stored in ice water and centrifuged within 30 min following the collection of blood (1500×g, 10 minutes) at +4° C. temperature. The plasma from each sample was divided into two equal aliquots (approx. 2×1.5 ml), which were each transferred to a polypropylene tube, and identified by a coded label. The plasma samples were then stored in a freezer at a temperature of at least −70° C. until time of analysis.

[2] = human, in vivo; remark: listed apart in the source
Description: (§1) Dosing Regimen: Subjects in each cohort received tolperisone according to the following regimen.
(§2) Blood samples for the measurement of the plasma concentrations of tolperisone and metabolites M1 (4-hydroxymethyltolperisone) and M4 (4-carboxy-tolperisone) were collected at the times shown in Table 8.
(§3) Bioanalytical: Plasma concentrations of tolperisone and metabolites M1 and M4 were measured using a validated LC/MS/MS assay by Pharm-analyt Laboratory, Baden Austria. The limits of quantitation (LOQ) for tolperisone, Mi, and M4 in plasma were 0.2 ng/ML, and 0.01 μg/mL, respectively.
(§4) Pharmacokinetic Analyses: Pharmacokinetic parameters for tolperisone, M1, and M4 were calculated using non-compartmental analysis. Only plasma concentrations greater than or equal to the LOQ for the respective assay were used in the pharmacokinetic analyses. Actual blood sampling times were used in all pharmacokinetic analyses. […] All pharmacokinetic calculations were done using SAS® for Windows® Version 9.1.3.
(§5) The maximum plasma concentration (Cmax) and time to Cmax (Tmax) were taken directly from the data. The elimination rate constant, λz, was calculated as the negative of the slope of the terminal log-linear segment of the plasma concentration-time curve. The range of data to be used for each subject and treatment was determined by visual inspection of a semi-logarithmic plot of concentration versus time. Elimination half-life (t½) was calculated according to the following equation: [formula] Area under the curve to the final sample with a concentration greater than or equal to the LOQ [(AUC(0-t)] was calculated using the linear trapezoidal method and extrapolated to infinity [AUC(inf)] using: [formula] where Ctf is the final concentration≧LOQ.
(§6) The maximum plasma concentration (Cmax) and time to Cmax (Tmax) were taken directly from the data.
(§7) The maximum plasma concentration (Cmax) and time to Cmax (Tmax) were taken directly from the data. The elimination rate constant, λz, and half-life, t½, were calculated as described for the 0800 dose on Day 1 (above). Areas under the curve to the final sample with a concentration greater than or equal to the LOQ [(AUC(O-t)] and over the 6-hour dosing interval [AUC(0-6)] were calculated using the linear trapezoidal method.

clinical = details: human, in vivo
Description: as §1, §2, §3, §4, §5, §6, §7

**Q.** Which AUC0-tlast ([1]; po, 150 mg) does the source give for Cc1ccc(C(=O)C(C)CN2CCCCC2)cc1 (centres unmarked) [Tolperisone, 2-methyl-1-(4-methylphenyl)-3-(1-piperidinyl)-1-propanone] here?
**A.** The AUC0-tlast was 54.0 ± 53.2 ng·h/mL.

**Q.** What about the “AUC0-oo, geometric mean for the ratio 150 mg fed/150 mg fasted, point estimate” value ([1]; male) of the same compound?
**A.** Its value is 1.87.

**Q.** And the “AUC0-tlast, geometric mean for the ratio 150 mg fed/150 mg fasted, point estimate” value ([1]; male)?
**A.** Its value is 1.92.

**Q.** What about the “Cmax, geometric mean for the ratio 150 mg fed/150 mg fasted, point estimate” value ([1]; male) of the same compound?
**A.** Its value is 1.18.

**Q.** And the AUC0-oo ([1]; male, po, 150 mg)?
**A.** The AUC0-oo was 55.4 ± 53.4 ng·h/mL.

**Q.** What about the Cmax ([1]; male, po, 150 mg) of the same compound?
**A.** The Cmax was 36.1 ± 38.4 ng/mL.

**Q.** What about the Tmax ([1]; male, po, 150 mg) of the same compound?
**A.** Its Tmax is 0.66 h.

**Q.** And the t1/2 ([1]; male, po, 150 mg)?
**A.** Its t1/2 is 2.06 ± 0.43 h.

**Q.** What about the “mean AUC(0-6) under fasted conditions higher than fed” value ([2]; both) of the same compound?
**A.** The value was 127%.

**Q.** What about the “mean Cmax under fasted conditions higher than fed” value ([2]; both) of the same compound?
**A.** The value was 213%.

**Q.** And the t½ ([2]; both)?
**A.** The t½ was 1.59 ± 0.63 (10) h.

**Q.** And the t½ ([2]; female)?
**A.** The t½ was 1.53 ± 0.08 (3) h.

**Q.** What about the t½ ([2]; male) of the same compound?
**A.** The t½ was 1.62 ± 0.77 (7) h.

**Q.** What about the AUC(0-t) (clinical; both, AUC (0-6)) of the same compound?
**A.** The AUC(0-t) was 196 ± 129 ng·h/mL.

**Q.** And the AUC(0-t) (clinical; both, AUC (0-t))?
**A.** Its AUC(0-t) is 117 ± 93 ng·h/mL.

**Q.** And the AUC(0-inf) (clinical; both, AUC (inf))?
**A.** Its AUC(0-inf) is 122 ± 97.5 ng·h/mL.

**Q.** What about the Tmax (clinical; both) of the same compound?
**A.** Its Tmax is 0.88 h.

**Q.** And the half-life (clinical; both, mean elimination half-life)?
**A.** Its half-life is about 1.3 h.

**Q.** What about the half-life (clinical; both, t½) of the same compound?
**A.** The half-life was 1.22 ± 0.24 h.

**Q.** And the AUC(0-t) (clinical; female, AUC(0-6))?
**A.** Its AUC(0-t) is 276 ± 151 ng·h/mL.

**Q.** What about the AUC(0-t) (clinical; female, AUC(0-t)) of the same compound?
**A.** The AUC(0-t) was 173 ± 152 ng·h/mL.

**Q.** And the AUC(0-inf) (clinical; female, AUC(inf))?
**A.** Its AUC(0-inf) is 181 ± 161 ng·h/mL.

**Q.** And the Tmax (clinical; female)?
**A.** Its Tmax is 1 h.

**Q.** And the half-life (clinical; female, t½)?
**A.** The half-life was 1.17 ± 0.25 h.

**Q.** What about the AUC(0-t) (clinical; male, AUC(0-6)) of the same compound?
**A.** The AUC(0-t) was 162 ± 113 ng·h/mL.

**Q.** What about the AUC(0-t) (clinical; male, AUC(0-t)) of the same compound?
**A.** Its AUC(0-t) is 93.1 ± 55.2 ng·h/mL.

**Q.** What about the AUC(0-inf) (clinical; male, AUC(inf)) of the same compound?
**A.** Its AUC(0-inf) is 96.3 ± 55.7 ng·h/mL.

**Q.** And the Tmax (clinical; male)?
**A.** The Tmax was 0.75 h.

**Q.** What about the half-life (clinical; male, t½) of the same compound?
**A.** The half-life was 1.24 ± 0.25 h.

Source: patent US20070249673A1, “Method for administering tolperisone” (priority 2006, published 2007)
